{
  "source": "patent US20240269223A1",
  "about": "“PROPHYLACTIC OR THERAPEUTIC AGENT FOR ACUTE RENAL FAILURE” (KYOWA HAKKO BIO CO., LTD., priority 2021, published 2024)",
  "key": {"[1]": {"system": "rat ischemic acute renal injury model with unilateral nephrectomy", "experiment": "Rat ischemic acute renal injury model with unilateral nephrectomy", "assay_type": "in vivo", "conditions": "200 mg/kg GSSSG intraperitoneal once a day x4 (day -4 to -1) before 40 min ischemia/reperfusion, versus control group", "experimental": "GSSSG dihydrate produced by the method described in Patent Literature 1 was carefully crushed in a mortar for 10 minutes or longer. 1,333 mg (1,250 mg in terms of anhydride) of GSSSG dihydrate was weighed out. 1,333 mg of the crushed GSSSG dihydrate was added to 40 mL of a normal saline, and the mixture was stirred in a suspended state for 5 minutes. 0.25 to 0.50 g of sodium bicarbonate was added to the suspension and dissolved. This GSSSG solution was transferred to a measuring cylinder, and a normal saline was added to make up 50 mL to obtain a preparation solution (final concentration: 25 mg/mL). The obtained preparation solution was filtered with a filter (0.22 μm filter) and used as an administration sample.\nIn the test, 4-week old male SD rats (body weight 99 to 113 g)\nwere used. A 16-day preliminary breeding period was set for the obtained animals. Rats with no abnormalities in body weight change and general condition were used for grouping.\nOne kidney was removed from rats in which no abnormalities were observed after the preliminary breeding period by the following method. […]\nThe administration sample was administered into the peritoneal cavity of rats from which the right kidney was removed using a disposable polypropylene syringe with an injection needle. […] The amount of solution administered was calculated at 8 mL/kg based on the body weight on the first day of administration. […]"}, "[2]": {"system": "rat bilateral kidney simultaneous ligation ischemic acute renal injury model", "experiment": "Rat bilateral kidney simultaneous ligation ischemic acute renal injury model", "assay_type": "in vivo", "conditions": "for Blood creatinine (CRE), before administration / Blood urea nitrogen (UN), before administration: baseline, day before administration; for Blood creatinine (CRE), before administration / Blood urea nitrogen (UN), before administration / GDF-15 (growth differentiation factor), 48 hours after ischemia reperfusion / Blood creatinine (CRE), 48 hours after ischemia reperfusion / Blood urea nitrogen (UN), 48 hours after ischemia reperfusion: plasma; for GDF-15 (growth differentiation factor), 48 hours after ischemia reperfusion: ELISA, control 1532 ± 246, placebo surgery 75.2 ± 4.3; for Blood creatinine (CRE), 48 hours after ischemia reperfusion: control 2.98 ± 0.56, placebo surgery 0.24 ± 0.01; for Blood urea nitrogen (UN), 48 hours after ischemia reperfusion: control 154.6 ± 19.5, placebo surgery 14.4 ± 1.1", "experimental": "GSSSG dihydrate produced by the method described in Patent Literature 1 was carefully crushed in a mortar for 10 minutes or longer. A required amount of GSSSG dihydrate was weighed out. 0.5 w/v % methylcellulose (hereinafter abbreviated to as MC) was added to the crushed GSSSG dihydrate to prepare a suspension at a concentration of 10 mg/mL, and used as an administration sample for a high-dose administration group. The 10 mg/mL suspension was diluted with 0.5 w/v % MC to prepare a 4 mg/mL suspension, and used as an administration sample for a low-dose administration group.\nIn the test, 5-week old male SD rats (body weight 136 to 154 g) were used. An 8-day preliminary breeding period was set for the obtained animals. Rats with no abnormalities in body weight change and general condition were used for grouping.\nThe administration method was oral administration. Forced oral administration was performed using a disposable polypropylene syringe with a metal oral gavage tube for rats. The amount of solution administered was 5 ml/kg for both the high dose group and the low dose group based on the body weight closest to that of the day of administration. Administration was performed a total of 5 times: 1 day before, 2 days before, and 3 days before the ischemia treatment was performed, 1 hour before the ischemia treatment, and 2 hours after the reperfusion treatment.\nThe ischemia and reperfusion treatments were performed as follows. Anesthesia was performed by intraperitoneal administration of 45 mg/kg (1 mL/kg) of pentobarbital sodium and subcutaneous administration of 1 mg/kg (1 mL/kg) of butorphanol tartrate. Both dorsal parts where the kidneys were located were shaved. Then, the animals were treated on a heater mat. The surgical site was disinfected with about 70% of an alcohol and then incised using scissors. After both kidneys of the animals in Group 2 to Group 4 in Table 3 were exposed, the renal arteries and veins of the left kidney and the right kidney in order were clamped using Klemme (clip power 120 g) for 40 minutes. During clamping, the kidney was returned to the body in order to prevent kidney desiccation. During reperfusion, it was confirmed that the blood color of the kidney was returned to normal (red), and the laparotomy wound was closed and disinfected with Isodine. In the animals of the Group 1, both kidneys were exposed, and returned to the peritoneal cavity without ischemia treatment, and the laparotomy wound was closed and disinfected with Isodine 40 minutes after incision. After suturing, the rats were returned to the original breeding cage.\nOn the day before administration, without anesthesia, about 0.25 mL of blood was collected from the tail vein using a heparin Na-treated capillary (DRUMMOND). The collected blood was cooled on ice and then separated using a centrifuge (4° C., 2,200×g, for 15 minutes), and the UN concentration and the CRE concentration were measured using the obtained plasma.\n48 hours after the reperfusion treatment, under isoflurane anesthesia, all blood was collected from abdominal aorta, using a winged injection needle and a heparin Na-treated vacuum blood collection tube. The collected blood was cooled on ice and then separated using a centrifuge (4° C., 2,150×g, for 15 minutes), and UN, CRE and GDF-15 (Mouse/Rat GDF-15 Quantikine ELISA Kit, R&D Systems, Inc) were measured using the obtained plasma."}},
  "data": [
    {"smiles": "N[C@@H](CCC(=O)N[C@@H](CSSSC[C@H](NC(=O)CC[C@H](N)C(=O)O)C(=O)NCC(=O)O)C(=O)NCC(=O)O)C(=O)O", "note": "[GSSSG, glutathione trisulfide]", "values": [
      {"measurement": "UN value (urea nitrogen concentration in plasma)", "setting": "[1]; FIG. 1", "value": "decreased"},
      {"measurement": "CRE value (creatinine concentration in plasma)", "setting": "[1]; FIG. 2", "value": "decreased"},
      {"measurement": "Blood creatinine (CRE), before administration", "setting": "[2]; 20 mg/kg oral group", "value": "0.21 ± 0.00", "unit": "mg/dL"},
      {"measurement": "Blood urea nitrogen (UN), before administration", "setting": "[2]; 20 mg/kg oral group", "value": "13.5 ± 0.5", "unit": "mg/dL"},
      {"measurement": "GDF-15 (growth differentiation factor), 48 hours after ischemia reperfusion", "setting": "[2]; 20 mg/kg oral x5", "value": "1673 ± 595", "unit": "pg/mL"},
      {"measurement": "Blood creatinine (CRE), 48 hours after ischemia reperfusion", "setting": "[2]; 20 mg/kg oral x5", "value": "2.29 ± 0.52", "unit": "mg/dL"},
      {"measurement": "Blood urea nitrogen (UN), 48 hours after ischemia reperfusion", "setting": "[2]; 20 mg/kg oral x5", "value": "136.8 ± 24.6", "unit": "mg/dL"},
      {"measurement": "therapeutic effect", "setting": "[2]; 50 mg/kg oral administration group", "value": "a therapeutic effect was exhibited"},
      {"measurement": "GDF-15 concentration, change versus control group", "setting": "[2]; 50 mg/kg oral group, 48 hours after reperfusion", "value": "slightly decreased"},
      {"measurement": "Blood creatinine (CRE), before administration", "setting": "[2]; 50 mg/kg oral group", "value": "0.20 ± 0.00", "unit": "mg/dL"},
      {"measurement": "Blood urea nitrogen (UN), before administration", "setting": "[2]; 50 mg/kg oral group", "value": "11.5 ± 0.4", "unit": "mg/dL"},
      {"measurement": "GDF-15 (growth differentiation factor), 48 hours after ischemia reperfusion", "setting": "[2]; 50 mg/kg oral x5", "value": "1327 ± 300", "unit": "pg/mL"},
      {"measurement": "Blood creatinine (CRE), 48 hours after ischemia reperfusion", "setting": "[2]; 50 mg/kg oral x5", "value": "2.07 ± 0.45", "unit": "mg/dL"},
      {"measurement": "Blood urea nitrogen (UN), 48 hours after ischemia reperfusion", "setting": "[2]; 50 mg/kg oral x5", "value": "106.2 ± 16.5", "unit": "mg/dL"},
      {"measurement": "UN value, change versus control group", "setting": "[2]; GSSSG administration group, 20 and 50 mg/kg oral, 48 hours after reperfusion, Table 5", "value": "decreased in a dose-dependent manner"},
      {"measurement": "CRE value, change versus control group", "setting": "[2]; GSSSG administration group, 20 and 50 mg/kg oral, 48 hours after reperfusion, Table 6", "value": "decreased in a dose-dependent manner"}
    ]}
  ]
}
